Measurements reported in patent US9511072B2, “Methods of modulating cell proliferation and cyst formation in polycystic kidney and liver diseases” (The Medical College of Wisconsin, Inc., priority 2006, dated 2016).
Values joined by “and” are separate entries in the source; they are usually repeats but may differ in a detail not shown here. Equal entries are not always repeated. “Also recorded” adds a separate entry of the source.

What was measured:
BPK mice = test: Chronic HET-0016 treatment of cystic BPK mice (kidney mass, cysts); format: in vivo, mouse
Description: This study was conducted using “immortalized” BPK mice as previous described by Sweeney W E et al. (Am J Physiol Cell Physiol, 281:C1695-705, 2001). In brief, BPK female heterozygotes (bpk^+/−) were bred with H-2k^b-ts-A58 transgenic males. Compound heterozygotes (bpk^+/−; H-2K^b-ts-A58^+/−) were identified by PCR and backcrossing to produce cystic offspring. Compound heterozygotes were mated to generate cystic (bpk^−/−; H-2K^b-ts-A58^+/±) and non-cystic (bpk^+/−; H-2K^b-ts-A58^+/±) offspring carrying at least one copy of the Immorto transgene (bpk^−/−; H-2K^b-ts-A58^+/±). All of the mice were genotyped for the H-2K^b-ts-A58 transgene by PCR analysis of DNA extracts from tail sections as described in Takacs-Jarrett M et al. Am J Physiol, 275:F802-11, 1998.
Kidney and liver tissues were harvested for qualitative analysis as described in Sweeney W E et al. (Kidney Int, 57:33-40, 2000) at postnatal day 21. Briefly, kidney and liver were fixed in 4.0% paraformaldehyde in phosphate buffer (pH 7.4) for 30 min at 4° C. Tissues were then washed, dehydrated through a graded series of acetone, and fixed in Immunobed embedding medium (Polysciences, Warrington, Pa.). Sections were cut at 4 μm, mounted on glass slides, and stained with hematoxylin or lectins staining the proximal tubule [Lotus tetragonobulus agglutinin (LTA)] and collecting tubule [Dolichol biflorus agglutinin (DBA)]. Segmental nephron cyst localization was characterized by light microscopy, and cystic lesions were quantitated by a morphometric index as described in Nakanishi K et al. (J Am Soc Nephrol, 12:719-25, 2001), Richards W G et al. (J Clin Invest, 101:935-9, 1998), Sweeney W E et al. (Kidney Int, 57:33-40, 2000), and Sweeney W E et al. (Kidney Int, 64:1310-9, 2003).
We administered HET-0016 (10 mg/kg/day), a specific 20-HETE synthesis inhibitor, intraperitoneally on a daily basis from post-natal day 7 to post-natal day 20. On day 21, the mice were sacrificed and the kidneys analyzed. […] Chronic blockade of 20-HETE synthesis lowered the KW/BW ratio to 9.4 in the HET-0016 treated BPK mice (Table 3).

[1] = test system: 20-HETE synthesis (cytochrome P450 4A and 4F isoforms); test: 20-HETE production by renal microsomes of BPK mice dosed with HET-0016; format: in vivo, mouse
Description: (§1) Microsomes were isolated from the cystic BPK and non-cystic Balb/C mouse kidneys as described by Ito O et al. (Am J Physiol Regul Integr Comp Physiol, 280:R822-30, 2001). For the BPK and Balb/C cells, protein lysates were harvested by homogenization and subsequent sonication of the cell pellets. For the 20-HETE production assay, the isolated protein (500 μg) was incubated in 0.5 mL of 100 mM potassium phosphate buffer containing 40 μM cold arachidonic acid and 2 mM NADPH. In some samples, the 20-HETE synthesis inhibitor, HET-0016, was added at a concentration of 1 μM. The reaction was incubated at 37° C. and equilibrated with 100% O2 for 30 minutes. The reaction was stopped by acidification to pH 3.5 with 1M formic acid. The lipids were extracted in the presence of 20-HETE-d6 (2 ng) using 3:1 ethyl acetate:water and dried down under nitrogen. The samples were reconstituted in 1:1 methanol:water and the production of 20-HETE was measured using a liquid chromatograph-triple quadrupole mass spectrometer (ABI 3000, Applied Biosystems, Inc., Foster City, Calif.) as described in Williams J M et al. Hypertension, 49:687-94, 2007.
To further examine the biological role of 20-HETE in the epithelial cell proliferation, post-natal day 7, 10 or 21 day old BPK mice were treated with an intraperitoneal injection of vehicle or HET-0016 (10 mg/kg/day) 2 hours prior to sacrifice at which point the kidneys were removed for measurement of 20-HETE synthesis.

Cyp4a12 = molecular target: T1, Cyp4a12 (Mus musculus, UniProt Q91WL5); test: 20-HETE production assay with lysates of Cyp4a12 over-expressing Balb/C cells; format: biochemical, murine; conditions: 1 μM during the 20-HETE production assay
T1 construct: Murine full-length Cyp4a10 (cDNA clone MGC:58977) and Cyp4a12 (cDNA clone MGC:25972) cDNA clones were purchased from ATCC; expressed in transfected cells; host or cells: conditionally immortalized non-cystic Balb/C (+/+) mouse renal epithelial cells transduced with the lentiviral vector pHR(+)c.Ub.CYP4A12.R(-)W(+); protein lysates
T1 sequence (Q91WL5 38-508): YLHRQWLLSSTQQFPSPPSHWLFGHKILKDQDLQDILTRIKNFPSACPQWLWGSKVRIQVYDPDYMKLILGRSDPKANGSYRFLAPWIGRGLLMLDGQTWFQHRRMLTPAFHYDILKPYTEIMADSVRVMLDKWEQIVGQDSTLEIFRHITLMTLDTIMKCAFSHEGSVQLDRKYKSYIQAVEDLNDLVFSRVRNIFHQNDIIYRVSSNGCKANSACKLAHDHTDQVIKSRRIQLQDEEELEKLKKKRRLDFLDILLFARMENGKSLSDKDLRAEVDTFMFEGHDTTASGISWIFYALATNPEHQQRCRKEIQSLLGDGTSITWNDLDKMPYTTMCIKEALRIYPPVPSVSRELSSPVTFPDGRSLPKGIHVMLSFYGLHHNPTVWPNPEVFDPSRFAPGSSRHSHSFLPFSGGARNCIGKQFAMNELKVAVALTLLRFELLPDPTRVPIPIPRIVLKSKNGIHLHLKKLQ
Description: as §1
The functional activity of the cytochrome P450 4A isoforms was determined using liquid chromatography coupled to mass spectrometry in the 20-HETE production assay (FIG. 7B). […]

[2] = BPK (−/−), 10 mg/kg/day i.p., post-natal day 7-20, day 21

Substance: N-hydroxy-N-(4-butyl-2-methylphenyl)-formamidine [HET0016]
- Body weight (BPK mice; [2]): 10.3 ± 1.0^¥ g
- Kidney Weight (BPK mice; [2]): 0.97 ± 0.32 g
- KW/BW (BPK mice; BPK (−/−), 10 mg/kg/day i.p., post-natal day 7-20, day 21, 10 mg/kg/day): 9.4% and 9.4 ± 3.3 %
- kidney size (BPK mice; BPK mice, 10 mg/kg/day chronic daily, vehicle 1.08 g): 0.43 g
- kidney size vs vehicle-treated BPK mice (FIG. 4) (BPK mice; BPK mice, 10 mg/kg/day i.p.): dramatically smaller
- reduction in body weight vs vehicle (BPK mice; BPK mice, 10 mg/kg/day i.p.): not statistically significant
- reduction of KW/BW ratio vs vehicle (BPK mice; BPK mice, 10 mg/kg/day i.p.): 53%
- reduction of kidney size vs vehicle (BPK mice; BPK mice, 10 mg/kg/day i.p.): 56%
- size and number of renal cysts (histology) (BPK mice; BPK mice, 10 mg/kg/day, day 21 kidneys, 10 mg/kg/day): marked reductions in the size and number of renal cysts; also recorded: dramatic reduction in the DBA-labeled collecting tubule cysts
- collecting tubule cystic index (CI) (BPK mice; BPK mice, 10 mg/kg/day, untreated 4.7+/−0.6): 1.93+/−0.2
- effect on other metabolites of arachidonic acid formed by the kidney ([1]; 10 mg/kg/day i.p.): no apparent inhibition
- inhibition of the formation of 20-HETE ([1]; 10 mg/kg/day i.p. 2 hours prior to sacrifice, renal microsomes): > 95%
- production of 20-HETE ([1]; 10 mg/kg/day i.p. 2 hours prior to sacrifice, renal microsomes, vehicle 1.06±0.33): 0.04±0.02 pmoles/min/mg protein
- inhibition of 20-HETE synthesis by over-expressed Cyp4a12 (Cyp4a12): > 70%
